Reference: the supplement of paper PMC10307832

Experiments:
Test in all cases: relative viability (nuclei count vs DMSO), 5 days (fraction); higher = more cells survive
NCI-H358 = test system: NCI-H358
Method in brief: (§1)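 Relative viability was taken as the ratio of nuclei in treated wells to nuclei in vehicle wells. Lung cancer cell lines in 1536-well plates received compounds by pin tool one day after seeding, either one drug alone or a fixed anchor-drug dose plus five library-drug doses (not always all listed) in √10 steps. Nuclei were counted on 4× images after 5 days of treatment, and values are medians of duplicate plates.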

PC-14 = test system: PC-14
Method in brief: as §1

EPLC-272H = test system: EPLC-272H
Method in brief: as §1

ABC-1 = test system: ABC-1
Method in brief: as §1

NCI-H522 = test system: NCI-H522
Method in brief: as §1

NCI-H1915 = test system: NCI-H1915
Method in brief: as §1

NCI-H460 = test system: NCI-H460
Method in brief: as §1

NCI-H2085 = test system: NCI-H2085
Method in brief: as §1

NCI-H2342 = test system: NCI-H2342
Method in brief: as §1

NCI-H2009 = test system: NCI-H2009
Method in brief: as §1

HCC-78 = test system: HCC-78
Method in brief: as §1

NCI-H650 = test system: NCI-H650
Method in brief: as §1

NCI-H1993 = test system: NCI-H1993
Method in brief: as §1

LC-2-ad = test system: LC-2-ad
Method in brief: as §1

SW 1573 = test system: SW 1573
Method in brief: as §1

NCI-H2126 = test system: NCI-H2126
Method in brief: as §1

HCC-15 = test system: HCC-15
Method in brief: as §1

HARA = test system: HARA
Method in brief: as §1

NCI-H838 = test system: NCI-H838
Method in brief: as §1

NCI-H2347 = test system: NCI-H2347
Method in brief: as §1

COR-L23 = test system: COR-L23
Method in brief: as §1

LU99A = test system: LU99A
Method in brief: as §1

NCI-H1651 = test system: NCI-H1651
Method in brief: as §1

UMC-11 = test system: UMC-11
Method in brief: as §1

Compound C[C@@H]1CN(CC(=O)Nc2ccc3c(c2)Cc2cccc(-c4cc(=O)cc(N5CCOCC5)o4)c2S3)C[C@H](C)O1 + N=C(N)NC(=N)NCCc1ccccc1 [Phenformin] (partner 250 µM) has a relative viability (NCI-H358; first compound 0.04 µM) of 0.362, a relative viability (NCI-H358; first compound 0.1265 µM) of 0.28 and a relative viability (NCI-H358; first compound 0.4 µM) of 0.371. The relative viability (NCI-H358; first compound 4 µM) was 0.28, the relative viability (PC-14; first compound 0.04 µM) was 0.377 and the relative viability (PC-14; first compound 0.1265 µM) was 0.528. It also gave a relative viability (PC-14; first compound 0.4 µM) of 0.556, a relative viability (PC-14; first compound 4 µM) of 0.574 and a relative viability (EPLC-272H; first compound 0.04 µM) of 0.278. For the same compound, the relative viability (EPLC-272H; first compound 0.1265 µM) was 0.274, the relative viability (EPLC-272H; first compound 0.4 µM) was 0.307 and the relative viability (EPLC-272H; first compound 4 µM) was 0.271. It also gave a relative viability (ABC-1; first compound 0.1265 µM) of 0.256, a relative viability (ABC-1; first compound 0.4 µM) of 0.273 and a relative viability (ABC-1; first compound 4 µM) of 0.236. The relative viability (NCI-H522; first compound 0.04 µM) was 0.72, the relative viability (NCI-H522; first compound 0.1265 µM) was 0.718 and the relative viability (NCI-H522; first compound 0.4 µM) was 0.635. It also gave a relative viability (NCI-H522; first compound 4 µM) of 0.608, a relative viability (NCI-H1915; first compound 0.04 µM) of 0.379 and a relative viability (NCI-H1915; first compound 0.1265 µM) of 0.388. It also gave a relative viability (NCI-H1915; first compound 0.4 µM) of 0.382, a relative viability (NCI-H1915; first compound 4 µM) of 0.362 and a relative viability (NCI-H460; first compound 0.04 µM) of 0.566. It also gave a relative viability (NCI-H460; first compound 0.1265 µM) of 0.488, a relative viability (NCI-H460; first compound 0.4 µM) of 0.605 and a relative viability (NCI-H460; first compound 4 µM) of 0.392. The relative viability (NCI-H2085; first compound 0.04 µM) was 0.763, the relative viability (NCI-H2085; first compound 0.1265 µM) was 0.732 and the relative viability (NCI-H2085; first compound 0.4 µM) was 0.694. The relative viability (NCI-H2085; first compound 4 µM) was 0.595, the relative viability (NCI-H2342; first compound 0.04 µM) was 0.625 and the relative viability (NCI-H2342; first compound 0.1265 µM) was 0.568. It also gave a relative viability (NCI-H2342; first compound 0.4 µM) of 0.525, a relative viability (NCI-H2342; first compound 4 µM) of 0.519 and a relative viability (NCI-H2009; first compound 0.04 µM) of 0.525. It also gave a relative viability (NCI-H2009; first compound 0.1265 µM) of 0.494, a relative viability (NCI-H2009; first compound 0.4 µM) of 0.453 and a relative viability (NCI-H2009; first compound 4 µM) of 0.384. It also gave a relative viability (HCC-78; first compound 0.04 µM) of 0.656, a relative viability (HCC-78; first compound 0.1265 µM) of 0.661 and a relative viability (HCC-78; first compound 0.4 µM) of 0.658. The relative viability (HCC-78; first compound 4 µM) was 0.619, the relative viability (NCI-H650; first compound 0.04 µM) was 0.417 and the relative viability (NCI-H650; first compound 0.1265 µM) was 0.436. It also gave a relative viability (NCI-H650; first compound 0.4 µM) of 0.436, a relative viability (NCI-H650; first compound 4 µM) of 0.33 and a relative viability (NCI-H1993; first compound 0.04 µM) of 0.532. The relative viability (NCI-H1993; first compound 0.1265 µM) was 0.497, the relative viability (NCI-H1993; first compound 0.4 µM) was 0.481 and the relative viability (NCI-H1993; first compound 4 µM) was 0.498. For the same compound, the relative viability (LC-2-ad; first compound 0.04 µM) was 0.695, the relative viability (LC-2-ad; first compound 0.1265 µM) was 0.593 and the relative viability (LC-2-ad; first compound 0.4 µM) was 0.587. The relative viability (LC-2-ad; first compound 4 µM) was 0.662, the relative viability (SW 1573; first compound 0.04 µM) was 0.438 and the relative viability (SW 1573; first compound 0.1265 µM) was 0.315. The relative viability (SW 1573; first compound 0.4 µM) was 0.301, the relative viability (SW 1573; first compound 4 µM) was 0.312 and the relative viability (NCI-H2126; first compound 0.04 µM) was 0.573. It also gave a relative viability (NCI-H2126; first compound 0.1265 µM) of 0.528, a relative viability (NCI-H2126; first compound 0.4 µM) of 0.531 and a relative viability (NCI-H2126; first compound 4 µM) of 0.454. The relative viability (HCC-15; first compound 0.04 µM) was 0.479, the relative viability (HCC-15; first compound 0.1265 µM) was 0.437 and the relative viability (HCC-15; first compound 0.4 µM) was 0.401. It also gave a relative viability (HCC-15; first compound 4 µM) of 0.363, a relative viability (HARA; first compound 0.1265 µM) of 0.357 and a relative viability (HARA; first compound 0.4 µM) of 0.436. The relative viability (HARA; first compound 4 µM) was 0.467, the relative viability (NCI-H838; first compound 0.04 µM) was 0.527 and the relative viability (NCI-H838; first compound 0.1265 µM) was 0.54. It also gave a relative viability (NCI-H838; first compound 0.4 µM) of 0.497, a relative viability (NCI-H838; first compound 4 µM) of 0.374 and a relative viability (NCI-H2347; first compound 0.04 µM) of 0.412. The relative viability (NCI-H2347; first compound 0.1265 µM) was 0.547, the relative viability (NCI-H2347; first compound 0.4 µM) was 0.368 and the relative viability (NCI-H2347; first compound 4 µM) was 0.449. For the same compound, the relative viability (COR-L23; first compound 0.04 µM) was 0.435, the relative viability (COR-L23; first compound 0.1265 µM) was 0.476 and the relative viability (COR-L23; first compound 0.4 µM) was 0.499. The relative viability (COR-L23; first compound 4 µM) was 0.439, the relative viability (LU99A; first compound 0.04 µM) was 0.742 and the relative viability (LU99A; first compound 0.1265 µM) was 0.985. The relative viability (LU99A; first compound 0.4 µM) was 1.02, the relative viability (LU99A; first compound 4 µM) was 0.916 and the relative viability (NCI-H1651; first compound 0.04 µM) was 0.334. For the same compound, the relative viability (NCI-H1651; first compound 0.1265 µM) was 0.321, the relative viability (NCI-H1651; first compound 0.4 µM) was 0.36 and the relative viability (NCI-H1651; first compound 4 µM) was 0.313. It also gave a relative viability (UMC-11; first compound 0.04 µM) of 0.363, a relative viability (UMC-11; first compound 0.1265 µM) of 0.33 and a relative viability (UMC-11; first compound 0.4 µM) of 0.338. It also gave a relative viability (UMC-11; first compound 4 µM) of 0.288.
